From ChEMBL document CHEMBL1201862, “PubChem BioAssay data set” (2004)
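Interpolation was linear, between the two tested concentrations surrounding the appropriate level; five concentrations were tested over 48 hours in 96-well plates. GI50 is the concentration that inhibits growth by half.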 Calls of active or inactive are those of the source. Cut-off read from the data, not from the text of the source: active = GI50 up to about 1.1 µM and inactive = higher.

Key:
Assay in all cases: NCI anticancer screen, dose series, 48 h
786-0 = tested on: 786-0
BT-549 = tested on: BT-549
HCT-116 = tested on: HCT-116
HCT-15 = tested on: HCT-15
K562 = tested on: K562
LOX IMVI = tested on: LOX IMVI
NCI-H23 = tested on: NCI-H23
NCI/ADR-RES = tested on: NCI/ADR-RES
RXF 393 = tested on: RXF 393
SK-OV-3 = tested on: SK-OV-3
SN12C = tested on: SN12C
SNB-19 = tested on: SNB-19
UACC-257 = tested on: UACC-257
A498 = tested on: A498
HCC 2998 = tested on: HCC 2998
HOP-92 = tested on: HOP-92
OVCAR-5 = tested on: OVCAR-5

Compound	GI50 (786-0)	GI50 (BT-549)	GI50 (HCT-116)	GI50 (HCT-15)	GI50 (K562)	GI50 (LOX IMVI)	GI50 (NCI-H23)	GI50 (NCI/ADR-RES)	GI50 (RXF 393)	GI50 (SK-OV-3)	GI50 (SN12C)	GI50 (SNB-19)	GI50 (UACC-257)	GI50 (A498)	GI50 (HCC 2998)	GI50 (HOP-92)	GI50 (OVCAR-5)
O=C1/C(=C\c2ccc([N+](=O)[O-])cc2)N(S(=O)(=O)c2ccccc2)c2ncccc21	16.5 µM (inactive)	18.3 µM (inactive)	18.2 µM (inactive)	15.7 µM	3.55 µM (inactive)	19.5 µM (inactive)	13.7 µM (inactive)	23.9 µM (inactive)	16.6 µM (inactive)	0.0212 µM (active)	16.9 µM (inactive)	24.5 µM (inactive)	21.8 µM (inactive)				
COc1cc(C2SCC(=O)N2c2ccc(-n3c(-c4ccccc4)nc4ccccc4c3=O)cc2)ccc1O (stereo unspecified)	> 100 µM (inactive)	> 100 µM (inactive)	50.1 µM (inactive)	64.1 µM	> 100 µM (inactive)	54.6 µM (inactive)	> 100 µM (inactive)	34.3 µM (inactive)		82 µM (inactive)		> 100 µM (inactive)	> 100 µM (inactive)	> 100 µM (inactive)	58.3 µM (inactive)	13.3 µM (inactive)	> 100 µM (inactive)
C[C@@H]1CC[C@]2(C(=O)O)CC[C@]3(C)C(=CC[C@@H]4[C@@]5(C)CC[C@H](O)C(C)(C)[C@@H]5CC[C@]43C)[C@@H]2[C@]1(C)O [POMOLIC ACID]	5.38 µM (inactive)	14.4 µM (inactive)	12.2 µM (inactive)	10.6 µM	6.49 µM (inactive)	15.7 µM (inactive)	18.7 µM (inactive)	15.5 µM (inactive)		17.9 µM (inactive)	13.6 µM (inactive)	15.7 µM (inactive)	5.42 µM (inactive)	19 µM (inactive)	15 µM (inactive)	4.45 µM (inactive)	17.7 µM (inactive)
NNC(=S)N1CCN(C(=S)NN)CC1	> 100 µM (inactive)	> 100 µM (inactive)	> 100 µM (inactive)			58.1 µM (inactive)	> 100 µM (inactive)			> 100 µM (inactive)	> 100 µM (inactive)	> 100 µM (inactive)	> 100 µM (inactive)	4.97 µM (inactive)	> 100 µM (inactive)	> 100 µM (inactive)	> 100 µM (inactive)
COc1c2c(cc3c1C(=O)c1c(O)cccc1C3=O)CC(O)CC2 (stereo unspecified)	25.6 µM (inactive)	19.5 µM (inactive)	24.6 µM (inactive)	35.8 µM	> 100 µM (inactive)	> 100 µM (inactive)	20.1 µM (inactive)	35.8 µM (inactive)		21.5 µM (inactive)	> 100 µM (inactive)	19.7 µM (inactive)	> 100 µM (inactive)	22.8 µM (inactive)	> 100 µM (inactive)	18.7 µM (inactive)	> 100 µM (inactive)
CCC(=N\NC(N)=S)/C(C)=N/O	> 100 µM (inactive)		> 100 µM (inactive)	> 100 µM	> 100 µM (inactive)	> 100 µM (inactive)	> 100 µM (inactive)	> 100 µM (inactive)	> 100 µM (inactive)	> 100 µM (inactive)	> 100 µM (inactive)	> 100 µM (inactive)	> 100 µM (inactive)		> 100 µM (inactive)	> 100 µM (inactive)	> 100 µM (inactive)
COC(=O)c1ccc(/C=C2\Oc3ccccc3C2=O)cc1	> 100 µM (inactive)	> 100 µM (inactive)	> 100 µM (inactive)	> 100 µM	> 10 µM (inactive)		> 100 µM (inactive)	> 100 µM (inactive)	> 100 µM (inactive)	> 100 µM (inactive)	> 100 µM (inactive)	> 100 µM (inactive)	> 100 µM (inactive)		> 100 µM (inactive)		
